ChEMBL document CHEMBL3576778, “Structure-Activity Relationship Studies of a Series of Semisynthetic Lipopeptides Leading to the Discovery of Surotomycin, a Novel Cyclic Lipopeptide Being Developed for the Treatment of Clostridium difficile-Associated Diarrhea” (J Med Chem, 2015)
≈ marks a conversion by molar mass, not a printed value.

Experiments:
Type in all cases: functional
[1] = test system: Clostridioides difficile; assay: Antimicrobial activity against daptomycin-resistant Clostridium difficile NAP1 incubated anaerobically at 37 degC for 48 hrs by agar dilution method; details: NAP1, 48 h
[2] = test system: Staphylococcus aureus; assay: Antimicrobial activity against daptomycin-susceptible Staphylococcus aureus ATCC 29213 incubated anaerobically at 37 degC for 48 hrs by agar dilution method; details: ATCC 29213, 48 h
[3] = test system: Enterococcus faecium; assay: Antimicrobial activity against daptomycin-resistant Enterococcus faecium ATCC 6569 incubated anaerobically at 37 degC for 48 hrs by agar dilution method; details: ATCC 6569, 48 h
[4] = test system: Enterococcus faecalis; assay: Antimicrobial activity against daptomycin-resistant Enterococcus faecalis ATCC 49452 incubated anaerobically at 37 degC for 48 hrs by agar dilution method; details: ATCC 49452, 48 h

## CCCOc1ccc(-c2ccc(C(=O)N[C@@H](Cc3c[nH]c4ccccc34)C(=O)N[C@@H](CC(N)=O)C(=O)N[C@@H](CC(=O)O)C(=O)N[C@@H]3C(=O)NCC(=O)N[C@@H](CCCN)C(=O)N[C@H](CC(=O)O)C(=O)N[C@H](C)C(=O)N[C@@H](CC(=O)O)C(=O)NCC(=O)N[C@H](CO)C(=O)N[C@@H]([C@@H](C)CC(=O)O)C(=O)N[C@@H](CC(=O)c4ccccc4N)C(=O)O[C@@H]3C)cc2)cc1
[1]
  MIC: 4 µg/mL (≈ 2.35 µM)
[2]
  MIC: 0.5 µg/mL (≈ 0.293 µM)
[3]
  MIC: 32 µg/mL (≈ 18.8 µM)
[4]
  MIC: > 32 µg/mL

## CCCCCCCOc1ccc(-c2ccc(C(=O)N[C@@H](Cc3c[nH]c4ccccc34)C(=O)N[C@@H](CC(N)=O)C(=O)N[C@@H](CC(=O)O)C(=O)N[C@@H]3C(=O)NCC(=O)N[C@@H](CCCN)C(=O)N[C@H](CC(=O)O)C(=O)N[C@H](C)C(=O)N[C@@H](CC(=O)O)C(=O)NCC(=O)N[C@H](CO)C(=O)N[C@@H]([C@@H](C)CC(=O)O)C(=O)N[C@@H](CC(=O)c4ccccc4N)C(=O)O[C@@H]3C)cc2)cc1
[1]
  MIC: 2 µg/mL (≈ 1.14 µM)
[2]
  MIC: 0.25 µg/mL (≈ 0.142 µM)
[3]
  MIC: 1 µg/mL (≈ 0.568 µM)
[4]
  MIC: 4 µg/mL (≈ 2.27 µM)

## C[C@H]1NC(=O)[C@@H](CC(=O)O)NC(=O)[C@H](CCCN)NC(=O)CNC(=O)[C@@H](NC(=O)[C@H](CC(=O)O)NC(=O)[C@H](CC(N)=O)NC(=O)[C@H](Cc2c[nH]c3ccccc23)NC(=O)C2CCCCCCCCCCC2)[C@@H](C)OC(=O)[C@H](CC(=O)c2ccccc2N)NC(=O)[C@H]([C@@H](C)CC(=O)O)NC(=O)[C@@H](CO)NC(=O)CNC(=O)[C@H](CC(=O)O)NC1=O
[1]
  MIC: 4 µg/mL (≈ 2.41 µM)
[2]
  MIC: 1 µg/mL (≈ 0.602 µM)
[3]
  MIC: 32 µg/mL (≈ 19.3 µM)
[4]
  MIC: > 32 µg/mL

## CCCCCCCCCCC(=O)N[C@@H](Cc1c[nH]c2ccccc12)C(=O)N[C@@H](CC(N)=O)C(=O)N[C@@H](CC(=O)O)C(=O)N[C@@H]1C(=O)NCC(=O)N[C@@H](CCCN)C(=O)NC(CC(=O)O)C(=O)N[C@H](C)C(=O)N[C@@H](CC(=O)O)C(=O)NCC(=O)N[C@H](CO)C(=O)N[C@@H]([C@@H](C)CC(=O)O)C(=O)N[C@@H](CC(=O)c2ccccc2N)C(=O)O[C@@H]1C (single isomer, unassigned)
[1]
  MIC: 4 µg/mL (≈ 2.45 µM)
[2]
  MIC: 2 µg/mL (≈ 1.22 µM)
[3]
  MIC: > 32 µg/mL
[4]
  MIC: 32 µg/mL (≈ 19.6 µM)

## CCCCCOc1ccc(-c2ccc(C(=O)N[C@@H](Cc3c[nH]c4ccccc34)C(=O)N[C@@H](CC(N)=O)C(=O)N[C@@H](CC(=O)O)C(=O)N[C@@H]3C(=O)NCC(=O)N[C@@H](CCCN)C(=O)N[C@H](CC(=O)O)C(=O)N[C@H](C)C(=O)N[C@@H](CC(=O)O)C(=O)NCC(=O)N[C@H](CO)C(=O)N[C@@H]([C@@H](C)CC(=O)O)C(=O)N[C@@H](CC(=O)c4ccccc4N)C(=O)O[C@@H]3C)cc2)cc1
[1]
  MIC: 2 µg/mL (≈ 1.15 µM)
[2]
  MIC: 0.25 µg/mL (≈ 0.144 µM)
[3]
  MIC: 2 µg/mL (≈ 1.15 µM)
[4]
  MIC: 4 µg/mL (≈ 2.31 µM)

## CCCCc1ccc(/C=C(\C)C(=O)N[C@@H](Cc2c[nH]c3ccccc23)C(=O)N[C@@H](CC(N)=O)C(=O)N[C@@H](CC(=O)O)C(=O)N[C@@H]2C(=O)NCC(=O)N[C@@H](CCCN)C(=O)NC(CC(=O)O)C(=O)N[C@H](C)C(=O)N[C@@H](CC(=O)O)C(=O)NCC(=O)N[C@H](CO)C(=O)N[C@@H]([C@@H](C)CC(=O)O)C(=O)N[C@@H](CC(=O)c3ccccc3N)C(=O)O[C@@H]2C)cc1 (single isomer, unassigned)
[1]
  MIC: 2 µg/mL (≈ 1.2 µM)
[2]
  MIC: 1 µg/mL (≈ 0.6 µM)
[3]
  MIC: 32 µg/mL (≈ 19.2 µM)
[4]
  MIC: > 32 µg/mL

## CCCCCCc1ccc(C(=O)N[C@@H](Cc2c[nH]c3ccccc23)C(=O)N[C@@H](CC(N)=O)C(=O)N[C@@H](CC(=O)O)C(=O)N[C@@H]2C(=O)NCC(=O)N[C@@H](CCCN)C(=O)N[C@H](CC(=O)O)C(=O)N[C@H](C)C(=O)N[C@@H](CC(=O)O)C(=O)NCC(=O)N[C@H](CO)C(=O)N[C@@H]([C@@H](C)CC(=O)O)C(=O)N[C@@H](CC(=O)c3ccccc3N)C(=O)O[C@@H]2C)cc1
[1]
  MIC: 4 µg/mL (≈ 2.42 µM)
[2]
  MIC: 1 µg/mL (≈ 0.604 µM)
[3]
  MIC: 32 µg/mL (≈ 19.3 µM)
[4]
  MIC: > 32 µg/mL
